In ChEMBL document CHEMBL5154820 (Eur J Med Chem, 2022):

Tests used:
[1] = target: Voltage-gated inwardly rectifying potassium channel KCNH2 (Homo sapiens, UniProt Q12809); experiment: Inhibition of human ERG expressed in CHO cells with holding potential of -80 mV by whole cell patch clamp assay; type: toxicity, cell-based
HeLa [2] = experiment: Induction of apoptosis in human HeLa cells assessed as late apoptotic cells at 0.4 uM measured after 24 hrs by Annexin V-FITC/7-AAD staining based flow cytometric analysis (reference value: 8.51%); type: functional
Tubulin (Homo sapiens) = Tubulin (Homo sapiens) (UniProt P68371+Q9H4B7+P0DPH7+P68366+Q13509+Q71U36+P04350+Q3ZCM7+P07437+P68363+Q9BQE3+Q6PEY2+Q13885+Q9BVA1+Q9BUF5); experiment: Induction of microtubule disruption in human HeLa cells assessed as loss of cellular structure at 0.1 to 0.2 uM measured after 24 hrs by DAPI staining based laser scanning confocal microscopic analysis; type: cell-based; conditions: dose 0.1-0.2 µM, DDE = dose-dependent effect
[3] = Toxicity against BABL/c mouse assessed as morphological changes in kidney at 30 mg/kg, ip administered daily for 21 days followed by addition of 3 mg/kg DDP for every 2 days by H and E staining method; type: organism-based; conditions: in vivo, 504 h, time 21 day
[4] = target: T1, Tubulin beta (Homo sapiens) (UniProt P68371+Q9H4B7+Q13509+P04350+Q3ZCM7+P07437+Q13885+Q9BVA1+Q9BUF5+A6NNZ2); experiment: Binding affinity to beta-tubulin colchicine binding site in human HeLa cells assessed as decrease of adduct formation by measuring gray value measured at 50 uM incubated for 2 hrs followed by addition of EBI measured after 1.5 hrs by EBI competition based Western blotting analysis; type: cell-based; conditions: time 3.5 hrs
[5] = target: T1, Tubulin beta (Homo sapiens); experiment: Binding affinity to beta-tubulin colchicine binding site in human HeLa cells assessed as decrease of adduct formation by measuring gray value measured at 1 uM incubated for 2 hrs followed by addition of EBI measured after 1.5 hrs by EBI competition based Western blotting analysis; type: cell-based; conditions: time 3.5 hrs
[6] = Acute toxicity in ICR male mouse assessed as body weight gain at 100 to 1000 mg/kg, ip measured daily for 14 days; type: organism-based; conditions: in vivo, 336 h, dose 100-1000 mg/kg, time 14 day
[7] = Toxicity against BABL/c mouse assessed as morphological changes in heart at 30 to 60 mg/kg, ip administered daily for 21 days by H and E staining method; type: organism-based; conditions: in vivo, 504 h, dose 30-60 mg/kg, time 21 day
[8] = target: T1, Tubulin beta (Homo sapiens); experiment: Binding affinity to beta-tubulin colchicine binding site in human HeLa cells assessed as inhibition of EBI-beta-tubulin adduct formation measured at 1 to 100 uM incubated for 2 hrs followed by addition of EBI measured after 1.5 hrs by EBI competition based Western blotting analysis; type: cell-based; conditions: dose 1-100 µM, time 3.5 hrs, DDE = dose-dependent effect
[9] = Toxicity against BABL/c mouse assessed as morphological changes in spleen at 30 mg/kg, ip administered daily for 21 days followed by addition of 3 mg/kg DDP for every 2 days by H and E staining method; type: organism-based; conditions: in vivo, 504 h, time 21 day
[10] = Acute toxicity against ICR mouse assessed as chronic progressive nephropathy in kidney at 1000 mg/kg, ip measured after 14 days by H and E staining method; type: organism-based; conditions: in vivo, 336 h, time 14 day
[11] = Acute toxicity against ICR mouse assessed as inflammatory cell infiltration in liver at 1000 mg/kg, ip measured after 14 days by H and E staining method; type: organism-based; conditions: in vivo, 336 h, time 14 day
[12] = Acute toxicity against ICR mouse assessed as glycogen deposition in liver at 1000 mg/kg, ip measured after 14 days by H and E staining method; type: organism-based; conditions: in vivo, 336 h, time 14 day
[13] = Acute toxicity against ICR mouse assessed as regeneration of renal tubule in kidney at 1000 mg/kg, ip measured after 14 days by H and E staining method; type: organism-based; conditions: in vivo, 336 h, time 14 day
[14] = Apparent clearance during terminal phase in C57 nude mouse at 30 mg/kg, ip measured at 0.083 to 24 hrs by LC/MS/MS analysis; type: ADME, organism-based; conditions: in vivo, time 0.083-24 hrs, read-out: CLz/F (converted)
[15] = Nephrotoxicity in BABL/c mouse assessed as increased creatinine level at 30 mg/kg, ip administered daily for 21 days followed by addition of 3 mg/kg DDP for every 2 days relative to vehicle; type: toxicity, organism-based; conditions: in vivo, 504 h, time 21 day
[16] = Half life in C57 nude mouse at 30 mg/kg, ip measured at 0.083 to 24 hrs by LC/MS/MS analysis; type: ADME, organism-based; conditions: in vivo, time 0.083-24 hrs
HeLa [17] = experiment: Induction of apoptosis in human HeLa cells assessed as necrotic cells at 0.2 uM measured after 24 hrs by Annexin V-FITC/7-AAD staining based flow cytometric analysis (reference value: 0.56%); type: functional
[18] = Nephrotoxicity in BABL/c mouse assessed as increased uric acid level at 30 mg/kg, ip administered daily for 21 days relative to vehicle; type: toxicity, organism-based; conditions: in vivo, 504 h, time 21 day
HeLa [19] = experiment: Induction of cell cycle arrest in human HeLa cells assessed as 4N cells at 0.2 uM measured after 24 hrs by propidium iodide staining based flow cytometric analysis analysis ( Rvb = 20.3%); type: functional
[20] = Toxicity against BABL/c mouse assessed as morphological changes in heart at 30 mg/kg, ip administered daily for 21 days followed by addition of 3 mg/kg DDP for every 2 days by H and E staining method; type: organism-based; conditions: in vivo, 504 h, time 21 day
HeLa [21] = experiment: Induction of cell cycle arrest in human HeLa cells assessed as >4N cells at 0.4 uM measured after 24 hrs by propidium iodide staining based flow cytometric analysis analysis ( Rvb = 8.84%); type: functional
HeLa [22] = experiment: Induction of cell cycle arrest in human HeLa cells assessed as < 2N cells at 0.1 uM measured after 24 hrs by propidium iodide staining based flow cytometric analysis analysis ( Rvb = 7.07%); type: functional
HeLa [23] = experiment: Induction of apoptosis in human HeLa cells assessed as viable cells at 6 nM measured after 24 hrs by Annexin V-FITC/7-AAD staining based flow cytometric analysis (reference value: 75.5%); type: functional; conditions: read-out: Activity
HeLa [24] = experiment: Induction of apoptosis in human HeLa cells assessed as late apoptotic cells at 1.5 nM measured after 24 hrs by Annexin V-FITC/7-AAD staining based flow cytometric analysis (reference value: 5.22%); type: functional
HeLa [25] = experiment: Induction of cell cycle arrest in human HeLa cells assessed as 2N cells at 3 nM measured after 24 hrs by propidium iodide staining based flow cytometric analysis analysis ( Rvb = 41.7%); type: functional
HeLa [26] = experiment: Induction of cell cycle arrest in human HeLa cells assessed as 2N cells at 1.5 nM measured after 24 hrs by propidium iodide staining based flow cytometric analysis analysis ( Rvb = 41.7%); type: functional
HeLa [27] = experiment: Induction of apoptosis in human HeLa cells assessed as late apoptotic cells at 3 nM measured after 24 hrs by Annexin V-FITC/7-AAD staining based flow cytometric analysis (reference value: 5.22%); type: functional
HeLa [28] = experiment: Induction of apoptosis in human HeLa cells assessed as necrotic cells at 1.5 nM measured after 24 hrs by Annexin V-FITC/7-AAD staining based flow cytometric analysis (reference value: 0.45%); type: functional

Chain of Voltage-gated inwardly rectifying potassium channel KCNH2 (Q12809 whole entry): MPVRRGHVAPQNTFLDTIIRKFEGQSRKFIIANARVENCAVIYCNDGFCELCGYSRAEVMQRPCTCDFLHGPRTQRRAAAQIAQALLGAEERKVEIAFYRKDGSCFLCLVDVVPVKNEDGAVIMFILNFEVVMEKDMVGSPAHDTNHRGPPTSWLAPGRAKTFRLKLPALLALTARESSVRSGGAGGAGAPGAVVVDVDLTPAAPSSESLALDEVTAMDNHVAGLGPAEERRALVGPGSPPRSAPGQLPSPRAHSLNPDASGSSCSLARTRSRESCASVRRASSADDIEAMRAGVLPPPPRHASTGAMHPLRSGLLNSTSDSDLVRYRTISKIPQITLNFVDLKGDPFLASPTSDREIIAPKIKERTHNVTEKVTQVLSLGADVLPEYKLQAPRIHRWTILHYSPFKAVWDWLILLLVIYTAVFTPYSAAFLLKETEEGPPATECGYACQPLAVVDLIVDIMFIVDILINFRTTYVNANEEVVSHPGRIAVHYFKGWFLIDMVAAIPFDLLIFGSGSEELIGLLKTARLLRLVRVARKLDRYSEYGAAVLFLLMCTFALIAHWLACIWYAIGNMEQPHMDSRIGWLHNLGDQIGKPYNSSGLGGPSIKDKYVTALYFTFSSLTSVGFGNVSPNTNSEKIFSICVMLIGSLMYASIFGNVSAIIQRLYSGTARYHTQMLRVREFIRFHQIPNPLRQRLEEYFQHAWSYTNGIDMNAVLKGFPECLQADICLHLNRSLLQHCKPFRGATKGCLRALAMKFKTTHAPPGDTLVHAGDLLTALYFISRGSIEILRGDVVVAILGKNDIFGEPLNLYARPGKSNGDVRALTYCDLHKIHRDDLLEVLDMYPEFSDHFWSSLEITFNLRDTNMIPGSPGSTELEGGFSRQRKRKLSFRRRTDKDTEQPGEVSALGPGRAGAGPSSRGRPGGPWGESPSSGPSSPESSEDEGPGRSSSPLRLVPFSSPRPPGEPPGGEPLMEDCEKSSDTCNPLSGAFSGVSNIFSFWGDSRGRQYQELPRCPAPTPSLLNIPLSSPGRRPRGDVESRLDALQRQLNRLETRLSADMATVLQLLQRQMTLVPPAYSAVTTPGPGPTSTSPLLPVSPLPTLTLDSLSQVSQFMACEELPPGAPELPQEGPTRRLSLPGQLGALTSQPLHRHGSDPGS

CCOc1ccc(-c2cncnc2-c2cc(OC)c(OC)c(OC)c2)cc1Cl
IC50 [1]: 22.3 µM
Activity (HeLa [2]): 3.98%
Activity (Tubulin (Homo sapiens)): Dde
Activity [3]: Non-Toxic
Activity [4]: 1.51
Activity [5]: 0.53
Activity [6]: 8.1 g
Activity [7]: Non-Toxic
Activity [8]: Dde
Activity [9]: Non-Toxic
Activity [10]: Non-Toxic
Activity [11]: Non-Toxic
Activity [12]: Non-Toxic
Activity [13]: Non-Toxic
CL/F [14]: 84.2 mL/min/kg
Activity [15]: 40%
half-life [16]: 1.56 h
Activity (HeLa [17]): 0.52%
Activity [18]: 21%
Activity (HeLa [19]): 47.6%
Activity [20]: Non-Toxic
Activity (HeLa [21]): 1.58%
Activity (HeLa [22]): 7.04%

COc1ccc(/C=C\c2cc(OC)c(OC)c(OC)c2)cc1O [COMBRETASTATIN A4]
viability at 0.006 µM (HeLa [23]): 19.2%
Activity (HeLa [24]): 6.68%
Activity (HeLa [25]): 24.9%
Activity (HeLa [26]): 43.1%
Activity (HeLa [27]): 10.8%
Activity (HeLa [28]): 0.91%
